What all share (format): cell-based
Test [1] concerns Escherichia coli. Put plainly: Bacterial growth in pure culture with test composition (turbidity 660 nm). As to conditions: E. coli, 9 h, 40° C., anaerobic.
The subject of test [2] is Clostridium perfringens. To be noted: C. perfringens, 23 h, 40° C., anaerobic.
Test [3] deals with Campylobacter jejuni. The test can be described thus: Bacterial growth in pure culture with test composition (SYBR Green fluorescence). To be noted: C. jejuni, 19 h, 40° C., anaerobic.
In test [4] the test system is Lactobacillus crispatus. Put plainly: Bacterial growth in pure culture with test composition (turbidity 660 nm). As to conditions: L. crispatus, 23 h, 40° C., anaerobic.
Setting [5] is: free pH, 0.01% (w/v) composition.
[6] abbreviates: free pH, 0.1% (w/v) composition.
Setting [7] is: free pH, 0.3% (w/v) composition.
[8] abbreviates: pH 6.5 (neutralised with NaOH), 0.01% (w/v) composition.
[9] abbreviates: pH 6.5 (neutralised with NaOH), 0.3% (w/v) composition.
Setting [10] is: pH 6.5 (neutralised with NaOH), 0.1% (w/v) composition.

Read-outs that look alike come from different tables or passages of the source.

For `O=CO` [Composition C, formic acid], the “Growth of Indicator Bacteria (% of Growth Control)” value (“Growth … (% of Growth Control)” below) worked out at 80% in test [1] (setting [5]); 20% in test [1] (setting [6]); 15% in test [1] (setting [7]); 110% in test [1] (setting [8]); 45% in test [1] (setting [9]); 75% in test [2] (setting [5]). Further, the “Growth … (% of Growth Control)” value turned out to be 20% in test [2] (setting [6]); 15% in test [2] (setting [7]); 100% in test [2] (setting [8]); 65% in test [2] (setting [10]); 60% in test [2] (setting [9]); 170% in test [3] (setting [5]). The “Growth … (% of Growth Control)” value in test [3] (setting [6]) came to 20%; in test [3] (setting [7]), 10%; in test [3] (setting [8]) it was 170%; in test [3] (setting [10]), 115%; in test [3] (setting [9]), 65%; in test [4] (setting [5]) it was 95%. The “Growth … (% of Growth Control)” value in test [4] (setting [6]) is recorded as 90%; in test [4] (setting [7]), 75%; in test [4] (setting [8]), 120%; in test [4] (setting [10]), 115%; in test [4] (setting [9]) it was 95%.

These data come from patent US20140357718A1 (priority 2013, published 2014).
